Source: patent publication US10898548B2, “Modulators of protein tyrosine phosphatase and uses thereof” (LEUVAS THERAPEUTICS, priority 2015, dated 2021)

Legend:
PTPRG = experiment: in vitro phosphatase activity (pNPP) on membranes from human primary monocytes; assay type: biochemical; conditions: orthovanadate treatment
Method: We first tested the biochemical activity of the fusion peptide by performing in vitro assays of phosphatase activity on purified membranes isolated from human primary monocytes compared to membranes isolated from human primary polymorphonuclear cells (PMNs). Human primary monocytes and polymorphonuclear (PMNs) cells were isolated from whole blood of healthy donors. Purity of monocyte preparation was evaluated by flow cytometry after staining with fluorescein isothiocyanate (FITC)-conjugated anti-CD14 antibody and was more than 95%. Isolated cells were kept at 37° C. in standard adhesion buffer (PBS, 1 mM CaCl2, 1 mM MgCl2, 10% FBS, pH 7.2) and used within 1 h.
The phosphatase activity in membrane fractions isolated from human monocytes and PMNs was assessed. […] Cells were then sonicated twice (6 sec, 15% W) and centrifuged at 2000 rpm for 10 minutes. The supernatants were collected and centrifuged at 28000 rpm for 60 minutes. After centrifugation, the supernatants were discarded, and the membrane pellets were dissolved in 20 mM tris pH 7.4. Equal amount of membrane fractions were added to pNPP buffer containing 20 mM tris, 10 mM DTT and 2 mM pNPP. Following, DMSO and peptides were added. After 30 minutes of incubation, levels of de-phosphorylation, in presence or absence of orthovanadate, were measured at 405 nm by a plate reader. Values are absorbance at 405 nn shown as percent fold increase over the blank; mean values of three experiments are shown. *p<0.001 vs vehicle (DMSO).

human primary monocytes [1] = experiment: static adhesion of fMLP-stimulated monocytes to ICAM-1; assay type: cell-based; set-up: adherent monocytes on ICAM-1: unit not given here
Method: We investigated the functional effect of PTPRG activation on integrin activation and mediated adhesion by chemoattractants in human primary monocytes and PMNs in a static and flow adhesion assays. Briefly, human primary monocytes or polymorphonuclear cells were suspended at 5×10^6/ml in standard adhesion buffer. Adhesion assays were performed on 18-well glass slides coated with 1 mg/ml human fibrinogen or with 1 μg/ml human ICAM-1 in PBS; 20 μl of cell suspension were added to the coated wells and stimulated for 1 min at 37° C. with 5 μl of fMLP, 0.05 μM final concentration. After rapid washing, adherent cells were fixed in ice-cold 1.5% glutaraldehyde in PBS, and still images of adherent cells in 0.2 mm^2 fields were acquired al 20× phase contrast magnification, NA 0.40, with a charge-coupled device camera (ICD-42B; Ikegami) connected to an inverted microscope (IX50; Olympus). Image acquisition and computer-assisted enumeration of adherent cells were performed with ImageJ (National Institute of Health).
We then investigated the functional effect of TAT-ICD on integrin activation and mediated adhesion by chemoattractants. Static adhesion assays were performed as described in Example 2. […] Data are mean number of adherent cells in 5 experiments in triplicate.
To evaluate whether JAK2 mediates chemoattractant-induced adhesion of human monocytes to beta-2 integrin substrates human monocytes were treated control buffer or P1 or with the three JAK inhibitors. Briefly, human monocytes were treated with buffer (CTRL=control), or 40 μM P1 or P1-TKIP peptides, 100 μM AG490 or 200 μM WHI-P154 for 1 hour at 37° C. and stimulated with 50 nM fMLP for 60 sec.; data are mean and standard deviation (SD) of 6 experiments in triplicate.
Human primary monocytes were isolated from buffy coats from healthy donors and pre-incubated for 30 minutes at room temperature with our without 0.075 micromolar PTPX. Standard adhesion assays on ICAM-1 coated glass slides. Cell suspensions were added to the coated wells for 1 minute, stimulated for 1 minute at 37° C. with […] fMLP. Non-adherent cells were washed away and adherent cells were fixed in ice-cold 1.5% glutaraldehyde in PBS and adherent cells were counted using computer assisted automatic quantification. Data are from a representative experiment and are the mean and standard deviation of 24 measurements per condition (Table 35).

human primary monocytes [2] = experiment: as above; assay type: cell-based; set-up: unit not given here; conditions: 0.075 micromolar PTPX, 30 minutes; 50 nM fMLP; Control 212.8
JAK2 (pYpY1007/1008) = experiment: p-JAK2 ELISA on monocytes; assay type: cell-based, human; conditions: monocytes, Resting 100.0, in % (unit assumed)
Excerpt: (§1) JAK2 regulation by PTPRG as assessed through the high-throughput phospho-proteomics analysis evidenced that PTPRG activation (Example 4, Table 9 and 10) provides a useful example of the exploitation of this analysis system for identification of targets and unexpected indications/uses for known and novel agents that regulate the phoshoproteome. […] Furthermore, the capability of fMLP to trigger JAKs activation has never been observed. The results described in Example 4 unexpectedly implicate JAK2 de-phosphorylation by PTPRG as playing a role in the anti-adhesive role of PTPRG on monocytes. To test this system-generated hypothesis we first set out to define the role of JAK2 in fMLP-triggered rapid adhesion in monocytes. Time course experiments, either performed with ELISA assay or Western Blot. Briefly, purified human monocytes were treated with buffer (resting) or with 50 nM fMLP for the indicated times (Table 12), and the phosphorylation was assessed by p-Jak2 elisa and Western Blot analysis. The JAK2 activation was determined with Elisa Kit JAK2 (pYpY1007/1008) (Invitrogen). Briefly, cells were stimulated with agonist and lysed following manufacturer's protocol; levels of phospho-JAK2 were quantified (absorbance at 450 nm) with a micro-well plate reader (Victor™ X5 Multilabel Plate Reader, Perkin Elmer). For Western blot analysis, cells were lysed in ice-cold 1% Nonidet P-40 buffer, containing phosphatase inhibitors and complete protease inhibitor cocktail (Roche). Total cell lysates were quantified by Bradford assay (Bio-Rad). Equal amounts of total lysates or of isolated membranes (as described in Example 1) were subjected to 10% SDS-PAGE and then blotted. After incubation with anti-PTPRG, anti gp91^Phox, anti phospho-JAK2, anti JAK2 and HRP-linked secondary antibodies (GE Healthcare), immunoreactive bands were visualized by ECL detection (EMD Millipore). Intensities of band signals were quantified by densitometric analysis (Quantity One, Bio-Rad) by using ImageQuant Las4000. Data are mean value of three experiments; the relative ratio of the band intensity of phosphor-JAK2 was normalized to the level of JAK2 band intensities.
Briefly, p-JAK2 ELISA assay on human monocytes treated with buffer (CTRL=control), 50 μM P1-WD, P1 or P1-WD scrambled peptides (Table 17), or with buffer (CTRL=control), 0.5 uM TAT-ICD or 50 μM TAT peptide (Table 18) for 1 hour at 37° C. and stimulated with 50 nM fMLP for 90 sec. Shown are percentages of fold increases over the control; mean values of 3 experiments in triplicate.

JAK2 = target: T1, JAK2 (Homo sapiens, UniProt O60674); experiment: phospho-JAK2 Western Blot on monocytes; assay type: cell-based; conditions: monocytes, Resting 20.2
T1 construct: endogenous in cells; host or cells: human primary monocytes
Excerpt: as §1
To evaluate whether JAK2 mediates fMLP-triggered rapid adhesion in human monocytes, we tested the capability of three JAK inhibitors, AG490, WHI-P154 and P1-TKIP peptide, to block adhesion triggering. Briefly, Monocytes were treated with buffer (resting and Control=CTRL), 100 μM AG490, 40 μM P1 or P1-TKIP peptides, or 200 μM WHI-P154 for 1 hour at 37° C. and stimulated with 50 nM fMLP for 180 sec. Cell lysates were probed with anti phospho-JAK2 and with anti JAK2. Western Blot immuoreactive band quantification; the relative ratio of the band intensity of phospho-JAK2 was normalized to the level of JAK2 band intensities; mean values of three experiments (Table 13).
The impact of TAT-ICD and P1-WD on JAK2 activation by chemoattractants was also evaluated by Western Blot analysis. Briefly, monocytes were treated with buffer (Resting, CTRL), 0.5 uM TAT-ICD, 50 μM TAT peptide, 50 μM P1-WD, P1 or P1-WD scrambled peptides for 1 hour at 37° C. and stimulated with 50 nM fMLP for 180 sec (the resting cells were not stimulated with fMLP). Total lysates were probed with anti phospho-JAK2 or with anti JAK. Western Blot immunoreactive bands were quantified and the relative ratio of the band intensity of phospho-JAK2 was normalized to the level of JAK2 band intensities; data are mean value and standard deviation of three experiments (Table 19).

T1 sequence (O60674 whole entry): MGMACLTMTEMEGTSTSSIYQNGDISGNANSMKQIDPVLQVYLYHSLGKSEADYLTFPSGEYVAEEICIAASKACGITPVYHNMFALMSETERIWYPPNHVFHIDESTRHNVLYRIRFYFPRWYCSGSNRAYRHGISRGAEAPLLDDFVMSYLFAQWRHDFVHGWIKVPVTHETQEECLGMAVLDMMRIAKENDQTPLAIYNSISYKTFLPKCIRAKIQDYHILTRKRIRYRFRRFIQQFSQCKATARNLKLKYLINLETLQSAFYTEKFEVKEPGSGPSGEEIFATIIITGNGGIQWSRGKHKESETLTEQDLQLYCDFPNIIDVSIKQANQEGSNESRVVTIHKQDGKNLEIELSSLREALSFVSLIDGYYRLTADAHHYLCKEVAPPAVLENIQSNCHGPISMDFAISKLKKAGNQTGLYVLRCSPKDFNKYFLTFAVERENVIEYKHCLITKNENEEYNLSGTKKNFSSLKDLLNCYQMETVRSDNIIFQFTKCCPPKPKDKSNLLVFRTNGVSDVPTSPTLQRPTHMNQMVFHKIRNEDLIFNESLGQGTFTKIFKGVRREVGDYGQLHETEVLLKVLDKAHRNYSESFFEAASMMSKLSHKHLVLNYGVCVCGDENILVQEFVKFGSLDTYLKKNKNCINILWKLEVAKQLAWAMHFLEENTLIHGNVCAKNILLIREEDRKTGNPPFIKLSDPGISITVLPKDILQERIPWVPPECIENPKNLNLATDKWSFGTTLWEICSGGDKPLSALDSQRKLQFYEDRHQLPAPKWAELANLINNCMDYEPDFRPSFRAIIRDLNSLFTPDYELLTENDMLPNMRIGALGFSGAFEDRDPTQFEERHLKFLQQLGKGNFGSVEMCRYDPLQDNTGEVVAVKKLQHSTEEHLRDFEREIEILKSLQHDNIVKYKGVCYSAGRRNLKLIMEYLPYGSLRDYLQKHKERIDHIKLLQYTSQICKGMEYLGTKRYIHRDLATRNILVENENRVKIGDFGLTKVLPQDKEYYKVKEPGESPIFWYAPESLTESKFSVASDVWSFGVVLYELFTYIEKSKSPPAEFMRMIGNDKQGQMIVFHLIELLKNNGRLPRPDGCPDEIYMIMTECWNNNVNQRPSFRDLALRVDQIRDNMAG

[Na+].[Na+].[Na+].[O]=[V]([O-])([O-])[O-] [Orthovanadate, Na3VO4, reference compound]
phosphatase activity elicited in membranes (PTPRG): completely prevented phosphatase activity

PTPx: external domain of PTPRG, amino acids 20-736, produced with a histidine tag
adherent monocytes on ICAM-1 (human primary monocytes [1]; 0.075 micromolar PTPX, 30 minutes, No Agonist, Control 22.2): 3.4 | adherent monocytes on ICAM-1 (human primary monocytes [2]): 32.7

fMLP
increase in monocyte adhesion to ICAM-1 (human primary monocytes [1]; stimulation with fMLP vs no agonist): approximately 10 fold | phospho-JAK2 level, ELISA (JAK2 (pYpY1007/1008); 50 nM fMLP 90″): 107.3 | phospho-JAK2 level, ELISA (JAK2 (pYpY1007/1008); 50 nM fMLP 120″): 128.3 | phospho-JAK2 level, ELISA (JAK2 (pYpY1007/1008); 50 nM fMLP 180″): 155.7 | phospho-JAK2 band intensity normalized to JAK2, Western Blot (JAK2; 50 nM fMLP 90″): 37.8 | phospho-JAK2 band intensity normalized to JAK2, Western Blot (JAK2; 50 nM fMLP 120″): 46.7 | phospho-JAK2 band intensity normalized to JAK2, Western Blot (JAK2; 50 nM fMLP 180″): 58.5
